This is an account of results in patent US6365550B1, “Flufenacet-based herbicidal compositions” (Bayer Aktiengesellschaft, priority 1999, dated 2002).

What all share (assay): Post-emergence test/greenhouse
What all share (format): in vivo
What all share (settings): scored after three weeks vs untreated control

One test deals with Echinochloa crus-galli. The procedure: (§1) Commercial formulations of the active compounds involved were used. The active compound concentrations required for the experiments were prepared by dilution with water.
(§2) Test plants which have a height of 5 to 15 cm are sprayed with the active compound preparation in such a way that the amounts of active compound desired in each case are applied per unit area. The concentration of the spray mixture is chosen in such a way that the amounts of active compound desired in each case are applied in 500 l water/ha.
(§3) After three weeks, the degree of damage to the plants is scored in % damage in comparison with the development of the untreated control.
(§4) The figures denote the following:
(§5) 0%=no action (like untreated control)

In another test the test system is Apera spica-venti. The procedure:
as §1, §2, §3, §4, §5

In a further test the test system is Chenopodium album. The procedure: as §1, §2, §3, §4, §5
In a further test the test system is Alopercurus myosuroides. The procedure:
as §1, §2, §3, §4, §5

Take `CC(C)N(C(=O)COc1nnc(C(F)(F)F)s1)c1ccc(F)cc1` [(I), N-(4fluoro-phenyl)-N-(i-propyl)-2-(5-trifluoromethyl-1,3,4-thiadiazol-2-yl-oxy)-acetamide]: the “% damage Echinochloa crus-galli” value in the test on Echinochloa crus-galli (application rate 60 g a.i./ha) came out at 60%. For the same compound, the “% damage Apera spica-venti” value in the test with Apera spica-venti (application rate 60 g a.i./ha) worked out at 60%. In addition, the “% damage Chenopodium album” value in the test on Chenopodium album (application rate 60 g a.i./ha) is given as 0%. Besides, the “% damage Alopercurus myosuroides” value with Alopercurus myosuroides (application rate 60 g a.i./ha) was found to be 60%.
For `CC(C)N.O=C(O)CNCP(=O)(O)O` [(II-1), N-phosphonomethyl-glycine i-propyl-ammonium salt], in the test with Echinochloa crus-galli (application rate 30 g a.i./ha), the “% damage Echinochloa crus-galli” value worked out at 0%. In addition, in the test on Apera spica-venti (application rate 30 g a.i./ha), the “% damage Apera spica-venti” value is reported as 0%. For the same compound, the “% damage Chenopodium album” value in the test on Chenopodium album (application rate 30 g a.i./ha) is on record as 0%. Further, the “% damage Alopercurus myosuroides” value with Alopercurus myosuroides (application rate 30 g a.i./ha) is recorded as 0%.
